Assay results published in ChEMBL document CHEMBL4382234, “Fluoroquinolone-isatin hybrids and their biological activities” (Eur J Med Chem, 2019).
In brackets after ≈: the same amount, converted by molar mass.

Legend:
[1] = system: Escherichia coli; assay: Potency index, ratio of norfloxacin ED50 to test compound ED50 for antibacterial activity against Escherichia coli NCTC 10418 infected in po dosed CF mouse; type: functional
[2] = system: Escherichia coli; assay: Antibacterial activity against Escherichia coli NCTC 10418 infected in po dosed CF mouse measured after 1 week; type: functional; conditions: NCTC 10418, po, 168 h
[3] = system: Mycobacterium tuberculosis; assay: Antimycobacterial activity against Mycobacterium tuberculosis H37Rv; type: functional
[4] = system: Human immunodeficiency virus 1; assay: Antiviral activity against HIV1 3B infected in human MT4 cells; type: functional, organism-based
[5] = system: HeLa; assay: Anticancer activity against human HeLa cells after 48 hrs by MTT assay; type: functional, cell-based
[6] = system: A549; assay: Anticancer activity against human A549 cells after 48 hrs by MTT assay; type: functional, cell-based; conditions: A549, 48 h
[7] = system: SW480; assay: Anticancer activity against human SW480 cells after 48 hrs by MTT assay; type: functional, cell-based; conditions: SW480, 48 h
[8] = system: HepG2; assay: Anticancer activity against human HepG2 cells after 48 hrs by MTT assay; type: functional, cell-based; conditions: HepG2, 48 h
[9] = Toxicity in po dosed CF mouse measured after 1 week; type: organism-based; conditions: in vivo
[10] = system: Pseudomonas aeruginosa; assay: Antibacterial activity against Pseudomonas aeruginosa by agar dilution method; type: functional
[11] = system: Shigella flexneri; assay: Antibacterial activity against Shigella flexneri by agar dilution method; type: functional
[12] = system: Vibrio cholerae; assay: Antibacterial activity against Vibrio cholerae by agar dilution method; type: functional
[13] = system: Staphylococcus epidermidis; assay: Antibacterial activity against Staphylococcus epidermidis by agar dilution method; type: functional
[14] = system: Escherichia coli; assay: Antibacterial activity against Escherichia coli by agar dilution method; type: functional
[15] = system: Salmonella typhi; assay: Antibacterial activity against Salmonella typhi by agar dilution method; type: functional, Salmonella enterica subsp. enterica serovar Typhi; conditions: Salmonella enterica
[16] = system: Klebsiella pneumoniae; assay: Antibacterial activity against Klebsiella pneumoniae by agar dilution method; type: functional
[17] = system: Citrobacter freundii; assay: Antibacterial activity against Citrobacter freundii by agar dilution method; type: functional
[18] = system: Staphylococcus aureus; assay: Antibacterial activity against Staphylococcus aureus by agar dilution method; type: functional

In the case of `CCn1cc(C(=O)O)c(=O)c2cc(F)c(N3CCN(CN4C(=O)/C(=N\c5ncc(Cc6cc(OC)c(OC)c(OC)c6)c(N)n5)c5cc(Br)ccc54)CC3)cc21`, the Ratio [1] is reported as 3.7 and the ED50 [2] is reported as 1.62 mg/kg.

Work on `COc1c(N2CCN(CN3C(=O)/C(=N\c4ccc(S(=O)(=O)Nc5nc(C)cc(C)n5)cc4)c4cc(F)ccc43)C(C)C2)c(F)cc2c(=O)c(C(=O)O)cn(C3CC3)c12` (centres undefined) yielded an MIC [3] of 1.22 µg/mL (≈ 1.5 µM), an Activity [4] of 106% and an EC50 ([4]; Human immunodeficiency virus 1, 3B, MT4) of 12.1 µg/mL (≈ 14.9 µM).

Work on `COc1ncnc(NS(=O)(=O)c2ccc(/N=C3\C(=O)N(CN4C(C)CN(c5c(F)c(N)c6c(=O)c(C(=O)O)cn(C7CC7)c6c5F)CC4C)c4ccccc43)cc2)c1OC` (centres undefined) yielded an IC50 [5] of 18.3 to 33.6 µg/mL (≈ 21.7 to 39.8 µM), an IC50 [6] of 18.3 to 33.6 µg/mL (≈ 21.7 to 39.8 µM) and an IC50 [7] of 18.3 to 33.6 µg/mL (≈ 21.7 to 39.8 µM). It also gave an IC50 [8] of 18.3 to 33.6 µg/mL (≈ 21.7 to 39.8 µM).

With `CC1CN(c2c(F)c(N)c3c(=O)c(C(=O)O)cn(C4CC4)c3c2F)CC(C)N1CN1C(=O)C(=O)c2ccccc21` (centres undefined) the IC50 [5] was 18.3 to 50 µg/mL (≈ 33.2 to 90.7 µM), the IC50 [6] was 18.3 to 50 µg/mL (≈ 33.2 to 90.7 µM) and the IC50 [7] was 18.3 to 50 µg/mL (≈ 33.2 to 90.7 µM). The IC50 [8] was 18.3 to 50 µg/mL (≈ 33.2 to 90.7 µM).

`CCn1cc(C(=O)O)c(=O)c2cc(F)c(N3CCNCC3)cc21` [NORFLOXACIN] showed an LD50 at 168 h [9] of 4000 mg/kg and an ED50 [2] of 6 mg/kg.

With `CCn1cc(C(=O)O)c(=O)c2cc(F)c(N3CCN(CN4C(=O)/C(=N\c5ccc(S(=O)(=O)Nc6ncccn6)cc5)c5ccccc54)CC3)cc21` the Ratio [1] was 4.8, the LD50 at 168 h [9] was over 4000 mg/kg and the ED50 [2] was 1.25 mg/kg.

`O=C1C(=O)N(CN2CCN(c3cc4c(cc3F)c(=O)c(C(=O)O)cn4C3CC3)CC2)c2ccccc21` gave an MIC [10] of 0.1 to 0.5 µg/mL (≈ 0.204 to 1.02 µM), an MIC [11] of 0.1 to 0.5 µg/mL (≈ 0.204 to 1.02 µM) and an MIC [12] of 0.1 to 0.5 µg/mL (≈ 0.204 to 1.02 µM). The MIC [13] was 0.1 to 0.5 µg/mL (≈ 0.204 to 1.02 µM), the MIC [14] was 0.1 to 0.5 µg/mL (≈ 0.204 to 1.02 µM) and the MIC [15] was 0.1 to 0.5 µg/mL (≈ 0.204 to 1.02 µM). For the same compound, the MIC [16] was 0.1 to 0.5 µg/mL (≈ 0.204 to 1.02 µM), the MIC [17] was 0.1 to 0.5 µg/mL (≈ 0.204 to 1.02 µM) and the MIC [18] was 0.1 to 0.5 µg/mL (≈ 0.204 to 1.02 µM).

`Cc1cc(C)nc(NS(=O)(=O)c2ccc(/N=C3\C(=O)N(CN4C(C)CN(c5c(F)c(N)c6c(=O)c(C(=O)O)cn(C7CC7)c6c5F)CC4C)c4ccccc43)cc2)n1` (centres undefined) gave an IC50 [5] of 18.3 to 50 µg/mL (≈ 22.6 to 61.6 µM), an IC50 [6] of 18.3 to 50 µg/mL (≈ 22.6 to 61.6 µM) and an IC50 [7] of 18.3 to 50 µg/mL (≈ 22.6 to 61.6 µM). For the same compound, the IC50 [8] was 18.3 to 50 µg/mL (≈ 22.6 to 61.6 µM).

`CC1CN(c2c(F)c(N)c3c(=O)c(C(=O)O)cn(C4CC4)c3c2F)CC(C)N1CN1C(=O)/C(=N\c2ccc(S(=O)(=O)Nc3ncccn3)cc2)c2ccccc21` (centres undefined) gave an IC50 [5] of 18.3 to 50 µg/mL (≈ 23.4 to 63.8 µM), an IC50 [6] of 18.3 to 50 µg/mL (≈ 23.4 to 63.8 µM) and an IC50 [7] of 18.3 to 50 µg/mL (≈ 23.4 to 63.8 µM). The IC50 [8] was 18.3 to 50 µg/mL (≈ 23.4 to 63.8 µM).

`CCn1cc(C(=O)O)c(=O)c2cc(F)c(N3CCN(CN4C(=O)C(=O)c5cc(C)ccc54)C(C)C3)c(F)c21` (centres undefined) gave an MIC [10] of 0.25 to 2.5 µg/mL (≈ 0.477 to 4.77 µM), an MIC [11] of 0.25 to 2.5 µg/mL (≈ 0.477 to 4.77 µM) and an MIC [12] of 0.25 to 2.5 µg/mL (≈ 0.477 to 4.77 µM). The MIC [13] was 0.25 to 2.5 µg/mL (≈ 0.477 to 4.77 µM), the MIC [14] was 0.25 to 2.5 µg/mL (≈ 0.477 to 4.77 µM) and the MIC [15] was 0.25 to 2.5 µg/mL (≈ 0.477 to 4.77 µM). For the same compound, the MIC [16] was 0.25 to 2.5 µg/mL (≈ 0.477 to 4.77 µM), the MIC [17] was 0.25 to 2.5 µg/mL (≈ 0.477 to 4.77 µM) and the MIC [18] was 0.25 to 2.5 µg/mL (≈ 0.477 to 4.77 µM).
